{"source": "ChEMBL document CHEMBL1135031", "about": "“Sequestration of bacterial lipopolysaccharide by bis(Args) gemini compounds” (Bioorg Med Chem Lett, 2002)", "key": {"Mus musculus [1]": {"tested_on": "Mus musculus", "assay": "Tested for protective effect in D-galactosamine (800 mg/kg) sensitized mice injected with lipopolysaccharides at 40 ng/mouse and compound dose of 10 ug/mouse (ip); 9/10 (dead/ Total mice)", "assay_type": "functional"}, "Mus musculus [2]": {"tested_on": "Mus musculus", "assay": "Tested for protective effect in D-galactosamine (800 mg/kg) sensitized mice injected with lipopolysaccharides at 40 ng/mouse and compound dose of 40 ug/mouse (ip); 6/10 (dead/ Total mice)", "assay_type": "functional"}, "Mus musculus [3]": {"tested_on": "Mus musculus", "assay": "Tested for protective effect in D-galactosamine (800 mg/kg) sensitized mice injected with lipopolysaccharides at 0 ng/mouse and compound dose of 40 ug/mouse (ip); 0/5 (dead/ Total mice)", "assay_type": "functional"}, "[4]": {"assay": "Dose that resulted in 100% lethality in murine model of CF-1 mice", "assay_type": "ADME", "settings": "mouse, in vivo"}, "Mus musculus [5]": {"tested_on": "Mus musculus", "assay": "Tested for protective effect in D-galactosamine (800 mg/kg) sensitized mice injected with lipopolysaccharides at 20 ng/mouse and compound dose of 10 ug/mouse (ip); 7/10 (dead/ Total mice)", "assay_type": "functional"}, "Mus musculus [6]": {"tested_on": "Mus musculus", "assay": "Tested for protective effect in D-galactosamine (800 mg/kg) sensitized mice injected with lipopolysaccharides at 40 ng/mouse and compound dose of 0 ug/mouse (ip); 5/5 (dead/ Total mice)", "assay_type": "functional"}, "Mus musculus [7]": {"tested_on": "Mus musculus", "assay": "Tested for protective effect in D-galactosamine (800 mg/kg) sensitized mice injected with lipopolysaccharides at 20 ng/mouse and compound dose of 40 ug/mouse (ip); 0/10 (dead/ Total mice)", "assay_type": "functional"}, "Mus musculus [8]": {"tested_on": "Mus musculus", "assay": "Tested for protective effect in D-galactosamine (800 mg/kg) sensitized mice injected with lipopolysaccharides at 20 ng/mouse and compound dose of 0 ug/mouse (ip); 5/5 (dead/ Total mice)", "assay_type": "functional"}, "Mus musculus [9]": {"tested_on": "Mus musculus", "assay": "Tested for protective effect in D-galactosamine (800 mg/kg) sensitized mice injected with lipopolysaccharides at 0 ng/mouse and compound dose of 10 ug/mouse (ip); 0/5 (dead/ Total mice)", "assay_type": "functional"}, "J774.A1": {"tested_on": "J774.A1", "assay": "Inhibition of TNF-a production by J774.A1 cells stimulated for 18 hr with Escherichia coli O111:B4 LPS (25 ng/mL)", "assay_type": "functional", "settings": "Mus musculus, J774.A1, 18 h; read-out: ED50 (the source's name)"}}}
{"molecule": "CCCCCCCCCCCC(=O)N[C@@H](CCCN=C(N)N)C(=O)NCCCCCCCCCNC(=O)[C@H](CCCN=C(N)N)NC(=O)CCCCCCCCCCC", "values": [{"measurement": "Lethality", "setting": "Mus musculus [1]", "value": 9}, {"measurement": "Lethality", "setting": "Mus musculus [2]", "value": 6}, {"measurement": "Lethality", "setting": "Mus musculus [3]", "value": 0}, {"measurement": "Lethal dose", "setting": "[4]", "value": 10, "unit": "ng/mL"}, {"measurement": "Lethality", "setting": "Mus musculus [5]", "value": 7}, {"measurement": "Lethality", "setting": "Mus musculus [6]", "value": 5}, {"measurement": "Lethality", "setting": "Mus musculus [7]", "value": 0}, {"measurement": "Lethality", "setting": "Mus musculus [8]", "value": 5}, {"measurement": "Lethality", "setting": "Mus musculus [9]", "value": 0}, {"measurement": "EC50", "setting": "J774.A1", "value": 2.5, "unit": "µg/mL"}]}
{"molecule": "CCCCCCCCCCCC(=O)N[C@@H](CCCN=C(N)N)C(=O)NCCCCCCNC(=O)[C@H](CCCN=C(N)N)NC(=O)CCCCCCCCCCC", "values": [{"measurement": "EC50", "setting": "J774.A1", "value": 1.4, "unit": "µg/mL"}]}
